Laboratory results: patent publication US12599676B2, “Cytotoxic imidazo[1,2-A]pyridine compounds and their use in therapy” (MyricX Pharma Limited, priority 2022, dated 2026)

Tests used:
[1] = system: BT474 breast cancer cells; experiment: Orthotopic BT474 breast cancer xenograft model; format: in vivo, NOD/SCID mice; conditions: 2.0 mg/kg IV, 2 days dosing then 5 day holiday (Group 6), stopped at day 13
Method: NOD/SCID mice were implanted with estrogen pellets (17β-estradiol, 60 day release, 0.36 mg) subcutaneously in the right flank one day before the tumour inoculation. On day −8 each mouse was then injected in the right mammary fat pad with 1×10^7 viable BT474 breast cancer cells resuspended in 0.2 mL of Phosphate Buffered Saline mixed with matrigel (1:1). Mice were assigned to treatment groups when tumour volumes averaged 149.78 mm^3 on study day 0. […] The study was terminated on Study Day 35.
Each group was comprised of 10 mice. Tumour volumes in mice were measured three times per week and tumour volume was calculated using the formula 0.5 (L×W^2). […] Statistical analyses were carried out on tumour readings for Groups 1, 2, 3, 4 and 5 up to Study Day 23 (after this point >50% of the animals within one of the study groups were lost; Group 2) using two-way ANOVA, or a Mixed-Effects model was fitted when values were missing from groups (PRISM GraphPad Software Inc.).
Tumour Growth Inhibition, ΔTGI %=((mean(C)−mean (CO))−(mean(T)−mean(TO)))/(mean(C)−mean(CO))×100% where T is the mean tumour volume on the measurement day and TO is the mean tumour volume of the treated group on Study Day 0. C is the mean tumour volume of the control Group 1 mice on the measurement day and CO is the mean tumour volume on Study Day 0.

[2] = system: DOHH-2 tumor cells; experiment: Subcutaneous xenograft DOHH-2 lymphoma model; format: in vivo, CB17/SCID mice; conditions: intraperitoneal dosing (Example 5: 7 or 20 mg/kg; Example 12: 0.7 or 2 mg/kg), QD cycles
Method: The in vivo efficacy of certain Example compounds was assessed in a subcutaneous xenograft DOHH-2 Lymphoma Model using 10 female 6-8 week old CB17/SCID Mice. Each mouse was inoculated subcutaneously at the right front region with DOHH-2 tumor cells (5×10^6) in 0.1 ml of PBS mixed with matrigel (1:1 PBS:matrigel) for tumor development. The test compound administration started once the mean tumor size reached approximately 100-150 mm^3.
Compounds were administered either IP (vehicle 10 mM sodium phosphate+0.2% Tween-80 (pH7.4) or orally (vehicle 15 Na2HPO4 buffer (10 mM) (pH 4.5)+0.2% tween 80). Tumor volumes were measured in two dimensions using a caliper, and the volume expressed in mm^3 using the formula: V=(L×W×W)/2, where V is tumor volume, L is tumor length (the longest tumor dimension) and W is tumor width (the longest tumor dimension perpendicular to L).
Mice were dosed with Example 21 orally (12.5 or 25 mg/kg) once a day for 9 consecutive days (FIG. 3). Example 5 was dosed intraperitoneally (7 or 20 mg/kg) in a cycle consisting of administration QD for three days followed by a three day no-dosing period followed by QD dosing for a further three days (FIG. 4). Example 12 was dosed intraperitoneally (0.7 or 2 mg/kg) in a cycle consisting of administration QD for three days followed by a three day no-dosing period followed by QD dosing for a further three days (FIG. 5). In a separate study Example 12 was dosed at […] in a cycle consisting of administration QD for two days followed by either four or six day no-dosing period, and this cycle was repeated three times (FIG. 6).

[3] = Caco-2 cell permeability assay; format: in vitro ADME; conditions: human, Caco-2, pH 7.4, basal to apical Papp, pH 7.4, 2.5 h
Summary of the method: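 Caco-2 monolayers grown 10 days were dosed at 2 μM (1% DMSO) on the donor side in HBSS/10 mM HEPES pH 7.4, for both AB and BA directions, then incubated 2.5 h at 37 °C without shaking. Donor and acceptor samples were quantified by LC-MS/MS to give Papp. Wells that failed a Lucifer Yellow integrity check (>1% passage) were excluded.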

SMILES | tumour size [1] | tumour volume compared to vehicle [2] | Papp B→A at 2.5 h, 2 μM [3] [×10⁻⁶ cm/s]
CNCc1cnc2ccc(-c3ccc(F)c(F)c3OCCc3c(C(O)C(C)(C)C)nn(C)c3C)cn12 (single isomer, unassigned) [Example 12, 1-(4-(2-(2,3-difluoro-6-(3-((methylamino)methyl)imidazo[1,2-a]pyridin-6-yl)phenoxy)ethyl)-1,5-dimethyl-1H-pyrazol-3-yl)-2,2-dimethylpropan-1-ol] | reduced tumour size | significant reduction in tumour volume or reduced growth in tumour volume | 
Cc1c(CCOc2cc(Cl)ccc2-c2ccc3ncc(CCN)n3c2)c(C(=O)N(C)C)nn1C [Comparator Compound 1, 4-(2-{2-[3-(2-aminoethyl)imidazo[1,2-a]pyridin-6-yl]-5-chlorophenoxy}ethyl)-N,N,1,5-tetramethyl-1H-pyrazole-3-carboxamide, reference compound] |  |  | 9.1
